Assay results: patent publication US20240189309A1, “TYK2 INHIBITORS AND USES THEREOF” (Sudo Biosciences Limited, priority 2021, published 2024)

What was measured:
[1] = target: T1, TYK2 Pseudokinase (JH2) (Homo sapiens, UniProt P29597); test: HEK-Blue IL-23 reporter assay (SEAP) for profiling TYK2 pseudokinase (JH2) inhibition; format: cell-based; set-up: HEK-Blue™ IL-23 and IFNα/β cells with a stably-integrated cytokine receptor and STAT3 or STAT1; endogenous in cells; host or cells: HEK-Blue IL-23 and HEK-Blue IFNα/β cells; details: HEK-Blue IL-23 cells, 10 ng/mL human recombinant IL-23, SEAP reporter; read-out: IL23 (TYK2 inhibitory activity, IC50)
T1 sequence (P29597 whole entry): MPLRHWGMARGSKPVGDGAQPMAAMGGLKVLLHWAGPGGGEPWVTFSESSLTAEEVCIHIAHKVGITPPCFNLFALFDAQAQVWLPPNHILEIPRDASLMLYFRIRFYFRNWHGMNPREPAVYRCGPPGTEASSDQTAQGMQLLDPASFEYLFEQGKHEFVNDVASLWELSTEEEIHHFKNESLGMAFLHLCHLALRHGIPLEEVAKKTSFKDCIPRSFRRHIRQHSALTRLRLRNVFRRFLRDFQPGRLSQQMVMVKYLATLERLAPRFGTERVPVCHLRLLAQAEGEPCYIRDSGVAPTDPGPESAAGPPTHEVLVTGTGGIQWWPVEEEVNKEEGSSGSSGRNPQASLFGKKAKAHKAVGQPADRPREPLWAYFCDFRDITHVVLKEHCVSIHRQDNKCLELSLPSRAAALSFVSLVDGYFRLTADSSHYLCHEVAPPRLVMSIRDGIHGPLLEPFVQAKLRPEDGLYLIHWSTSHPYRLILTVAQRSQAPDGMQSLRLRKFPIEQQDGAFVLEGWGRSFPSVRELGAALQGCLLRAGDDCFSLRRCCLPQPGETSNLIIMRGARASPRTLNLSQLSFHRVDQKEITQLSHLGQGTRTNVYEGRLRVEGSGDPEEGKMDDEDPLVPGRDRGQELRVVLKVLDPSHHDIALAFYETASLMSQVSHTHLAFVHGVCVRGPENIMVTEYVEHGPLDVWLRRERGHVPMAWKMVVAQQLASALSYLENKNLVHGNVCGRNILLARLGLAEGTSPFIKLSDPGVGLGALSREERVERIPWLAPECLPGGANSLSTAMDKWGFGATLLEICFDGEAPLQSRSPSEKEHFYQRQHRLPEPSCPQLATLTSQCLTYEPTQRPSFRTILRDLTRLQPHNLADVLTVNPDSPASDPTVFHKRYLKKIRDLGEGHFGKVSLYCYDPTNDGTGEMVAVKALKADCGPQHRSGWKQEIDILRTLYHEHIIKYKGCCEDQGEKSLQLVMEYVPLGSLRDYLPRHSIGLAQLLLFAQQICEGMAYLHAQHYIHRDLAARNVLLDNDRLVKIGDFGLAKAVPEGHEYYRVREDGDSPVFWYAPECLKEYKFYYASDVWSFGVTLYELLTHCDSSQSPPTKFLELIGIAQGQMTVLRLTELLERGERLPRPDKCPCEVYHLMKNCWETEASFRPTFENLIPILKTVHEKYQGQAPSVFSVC
Method: (§1) Example B-1: HEK-Blue™ IL-23 and IFNα/β Reporter Assays for Profiling TYK2 Pseudokinase (JH2) Inhibition
(§2) HEK-Blue™ IL-23 and IFNα/β cells with a stably-integrated cytokine receptor and STAT3 or STAT1 express STAT-inducible secreted embryonic alkaline phosphatase (SEAP) reporter gene upon cytokine stimulation. These cells are plated in DMEM (Gibco) containing 10% heat-inactivated FBS (Gibco) and 100 U/mL PenStrep (Gibco) at 37° C. under 5% CO2 conditions for 20-22 hours. The cells are then pretreated with serially diluted test compounds for 60 min prior to stimulation with either 10 ng/mL human recombinant IL-23 (Miltenyl Biotech) or 1 ng/mL human recombinant IFNα (InvivoGen) for 22-24 hours for IL-23 or 16-18 h for IFNα. SEAP induction is measured using the QUANTI Blue™ Solution (InvivoGen) according to the manufacturer's instructions.

[2] = system: HEK-Blue™ IL-2 reporter cells; test: HEK-Blue IL-2 reporter assay (SEAP) for determining selectivity; format: cell-based; details: HEK-Blue IL-2 cells, 4 ng/mL human recombinant IL-2, SEAP reporter
Method: (§3) Example B-3: HEK-Blue™ IL-2 and IFNγ Reporter Assays for Determining Selectivity
(§4) HEK-Blue™ IL-2 and IFNγ reporter cells with a stably-integrated cytokine receptor and STAT5 or STAT1 express STAT-inducible secreted embryonic alkaline phosphatase (SEAP) reporter gene upon cytokine stimulation. These cells were plated in DMEM (Gibco) containing 10% heat-inactivated FBS (Gibco) and 100 U/mL PenStrep (Gibco) at 37° C. under 5% CO2 conditions for 20-22 hours. The cells were then pre-treated with serially diluted test compounds for 60 min prior to stimulation with either 4 ng/mL human recombinant IL-2 (Miltenyl Biotech) or 50 ng/mL human recombinant IFNγ (InvivoGen) for 24 hours. SEAP induction was measured using the QUANTI-Blue™ Solution (InvivoGen) according to the manufacturer's instructions.

[3] = target: T2, TYK2-JH1 (Homo sapiens, UniProt P29597); test: HTRF-based selectivity assay, TYK2 catalytic domain; format: biochemical; details: kinase domain (JH1), ATP 20 μM
T2 construct: recombinant purified His or GST-tagged catalytic domain for each enzyme; made in house
T2 sequence (P29597 897-1176 limits assumed): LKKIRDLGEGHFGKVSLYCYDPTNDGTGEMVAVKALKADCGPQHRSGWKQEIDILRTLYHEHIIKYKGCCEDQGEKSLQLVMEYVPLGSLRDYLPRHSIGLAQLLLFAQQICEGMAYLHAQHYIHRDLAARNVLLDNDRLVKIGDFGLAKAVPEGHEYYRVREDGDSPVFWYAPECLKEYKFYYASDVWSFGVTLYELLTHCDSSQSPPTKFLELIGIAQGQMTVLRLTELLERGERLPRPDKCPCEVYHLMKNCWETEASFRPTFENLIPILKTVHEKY
Method: (§5) Example B-2: HTRF-Based Selectivity Assay
(§6) The ability of compounds to inhibit the activity of JAK1, JAK2, JAK3 and TYK2 is measured using a recombinant purified His or GST-tagged catalytic domain for each enzyme (JAK1, JAK2 and TYK2 are generated in-house; JAK3 was purchased from Carna biosciences, Cat #08-046) in an HTRF format biochemical assay. The reactions employs a commercial peptide substrate from Cisbio (Cat #62TK0PEC). The basic assay protocol is as follows: first, 2.5 μL of diluted compounds (4×) in DMSO are dispensed into a 384-well Optiplate. Next, 2.5 μL of enzyme (final concentrations for enzymes are: TYK2—700 ng/mL, JAK1—80.6 ng/mL, JAK2—2.1 ng/mL and JAK3—171.8 ng/mL) is added and incubated at RT for 5-20 min. Finally, 5 μl of mixture of 2×ATP [Final concentration 20 μM for TYK2, 21.43 μM for JAK1, 14.7 μM for JAK2 and 2.12 μM for JAK3]+2× Substrate [Final concentration 217 nM for TYK2, 454.7 nM for JAK1, 200 nM for JAK2 and 257.4 nM for JAK3] is added to 384 well Optiplate. Composition of Kinase assay buffer used in the assay is as follows: HEPES 50 mM, EGTA 1 mM, MgCl2 10 mM, DTT 2 mM, Tween-20 0.01% and water. Then the plates are shaken and then incubated at 26.5° C. for 60 min.

[4] = system: HEK-Blue™ IFNγ reporter cells; test: HEK-Blue IFNγ reporter assay (SEAP) for determining selectivity; format: cell-based; details: 50 ng/mL human recombinant IFNγ, read-out: IFN-γ (SEAP selectivity, IC50)
Method: as §3, §4

[5] = target: T3, JAK1-JH1 (Homo sapiens, UniProt P23458); test: HTRF-based selectivity assay, JAK1 catalytic domain; format: biochemical; details: kinase domain (JH1), ATP 21.43 μM
T3 construct: recombinant purified His or GST-tagged catalytic domain for each enzyme; made in house
T3 sequence (P23458 875-1153 limits assumed): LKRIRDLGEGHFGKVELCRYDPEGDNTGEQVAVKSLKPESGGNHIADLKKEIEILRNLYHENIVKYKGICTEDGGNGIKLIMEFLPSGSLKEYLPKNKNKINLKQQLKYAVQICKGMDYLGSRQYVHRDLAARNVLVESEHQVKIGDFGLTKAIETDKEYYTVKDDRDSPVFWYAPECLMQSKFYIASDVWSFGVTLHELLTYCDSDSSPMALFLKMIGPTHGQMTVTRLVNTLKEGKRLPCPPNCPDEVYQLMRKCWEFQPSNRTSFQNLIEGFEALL
Method: as §5, §6

[6] = target: T4, JAK3-JH1 (Homo sapiens, UniProt P52333); test: HTRF-based selectivity assay, JAK3 catalytic domain; format: biochemical; details: kinase domain (JH1), ATP 2.12 μM
T4 construct: recombinant purified His or GST-tagged catalytic domain for each enzyme; purchased Carna biosciences 08-046
T4 sequence (P52333 822-1111 limits assumed): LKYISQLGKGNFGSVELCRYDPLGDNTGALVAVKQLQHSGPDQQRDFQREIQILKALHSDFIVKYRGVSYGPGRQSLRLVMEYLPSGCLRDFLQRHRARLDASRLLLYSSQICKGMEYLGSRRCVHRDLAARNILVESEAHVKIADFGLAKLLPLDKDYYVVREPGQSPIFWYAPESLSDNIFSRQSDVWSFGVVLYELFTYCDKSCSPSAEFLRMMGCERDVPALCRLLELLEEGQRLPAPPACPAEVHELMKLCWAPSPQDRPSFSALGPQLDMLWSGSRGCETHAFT
Method: as §5, §6

[7] = target: T5, JAK2-JH1 (Homo sapiens, UniProt O60674); test: HTRF-based selectivity assay, JAK2 catalytic domain; format: biochemical; details: kinase domain (JH1), ATP 14.7 μM
T5 construct: recombinant purified His or GST-tagged catalytic domain for each enzyme; made in house
T5 sequence (O60674 849-1124 limits assumed): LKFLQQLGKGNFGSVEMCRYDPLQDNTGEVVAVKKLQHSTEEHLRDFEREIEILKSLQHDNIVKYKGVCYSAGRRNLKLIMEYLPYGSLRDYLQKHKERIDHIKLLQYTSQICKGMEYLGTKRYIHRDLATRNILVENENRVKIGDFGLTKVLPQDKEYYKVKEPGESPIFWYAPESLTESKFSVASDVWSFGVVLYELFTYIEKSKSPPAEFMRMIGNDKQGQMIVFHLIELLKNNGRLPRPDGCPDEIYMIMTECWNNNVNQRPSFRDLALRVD
Method: as §5, §6

[8] = target: T1, TYK2 Pseudokinase (JH2); test: HEK-Blue IFNα/β reporter assay (SEAP) for profiling TYK2 pseudokinase (JH2) inhibition; format: cell-based; details: HEK-Blue IFNα/β cells, 1 ng/mL human recombinant IFNα, read-out: IFNα (TYK2 inhibitory activity, IC50)
Method: as §1, §2

## CNC(=O)c1nnc(Nc2ccc(F)cn2)cc1Nc1cccc2c1OCc1conc1-2 [Compound 2, 4-((4H-chromeno[4,3-c]isoxazol-6-yl)amino)-6-((5-fluoropyridin-2-yl)amino)-N-methylpyridazine-3-carboxamide]
[1]
  IC50: < 30 nM
[2]
  IC50: > 1000 nM
[3]
  IC50: > 1000 nM
[4]
  IC50: 300 to 1000 nM
[5]
  IC50: > 1000 nM
[6]
  IC50: > 1000 nM
[7]
  IC50: > 1000 nM
[8]
  IC50: > 1000 nM

## [2H]C([2H])([2H])NC(=O)c1cnc(NC(=O)C2CC2)cc1Nc1cccc2c1N(C)Cc1nn(C)c(=O)n1-2 [Compound 8, 6-(cyclopropanecarboxamido)-4-((2,5-dimethyl-1-oxo-1,2,4,5-tetrahydro-[1,2,4]triazolo[4,3-a]quinoxalin-6-yl)amino)-N-(methyl-d3)nicotinamide]
[1]
  IC50: < 30 nM
[2]
  IC50: > 1000 nM
[3]
  IC50: > 1000 nM
[4]
  IC50: 300 to 1000 nM
[5]
  IC50: > 1000 nM
[6]
  IC50: > 1000 nM
[7]
  IC50: > 1000 nM
[8]
  IC50: < 30 nM

## [2H]C([2H])([2H])NC(=O)c1cnc(Nc2ccc(F)cn2)cc1Nc1cccc2c1N(C)Cc1nn(C)c(=O)n1-2 [Compound 9, 4-((2,5-dimethyl-1-oxo-1,2,4,5-tetrahydro-[1,2,4]triazolo[4,3-a]quinoxalin-6-yl)amino)-6-((5-fluoropyridin-2-yl)amino)-N-(methyl-d3)nicotinamide]
[1]
  IC50: < 30 nM
[2]
  IC50: > 1000 nM
[3]
  IC50: > 1000 nM
[4]
  IC50: > 1000 nM
[5]
  IC50: > 1000 nM
[6]
  IC50: > 1000 nM
[7]
  IC50: > 1000 nM
[8]
  IC50: < 30 nM

## [2H]C([2H])([2H])NC(=O)c1cnc(Nc2ccc(F)cn2)cc1Nc1cccc2c1N(C)Cc1nnnn1-2 [Compound 10, 6-((5-fluoropyridin-2-yl)amino)-N-(methyl-d3)-4-((5-methyl-4,5-dihydrotetrazolo[1,5-a]quinoxalin-6-yl)amino)nicotinamide]
[1]
  IC50: < 30 nM
[2]
  IC50: > 1000 nM
[3]
  IC50: > 1000 nM
[4]
  IC50: > 1000 nM
[5]
  IC50: > 1000 nM
[6]
  IC50: > 1000 nM
[7]
  IC50: > 1000 nM
[8]
  IC50: 30 to 300 nM

## [2H]C([2H])([2H])NC(=O)c1cnc(NC(=O)C2CC2)cc1Nc1cccc2c1N(C)Cc1nnnn1-2 [Compound 11, 6-(cyclopropanecarboxamido)-N-(methyl-d3)-4-((5-methyl-4,5-dihydrotetrazolo[1,5-a]quinoxalin-6-yl)amino)nicotinamide]
[1]
  IC50: < 30 nM
[2]
  IC50: > 1000 nM
[3]
  IC50: > 1000 nM
[4]
  IC50: > 1000 nM
[5]
  IC50: > 1000 nM
[6]
  IC50: > 1000 nM
[7]
  IC50: > 1000 nM
[8]
  IC50: 30 to 300 nM

## [2H]C([2H])([2H])NC(=O)c1cnc(Nc2cc(C)nc(C)n2)cc1Nc1cccc2c1N(C)Cc1nn(C)c(=O)n1-2 [Compound 12, 4-((2,5-dimethyl-1-oxo-1,2,4,5-tetrahydro-[1,2,4]triazolo[4,3-a]quinoxalin-6-yl)amino)-6-((2,6-dimethylpyrimidin-4-yl)amino)-N-(methyl-d3)nicotinamide]
[1]
  IC50: < 30 nM
[2]
  IC50: > 1000 nM
[3]
  IC50: > 1000 nM
[4]
  IC50: > 1000 nM
[5]
  IC50: > 1000 nM
[6]
  IC50: > 1000 nM
[7]
  IC50: > 1000 nM
[8]
  IC50: < 30 nM

## CNC(=O)c1cnc(Nc2ccc(F)cn2)cc1Nc1cccc2c1OCCn1nnnc1-2 [Compound 15, 4-((5,6-dihydrobenzo[f]tetrazolo[1,5-d][1,4]oxazepin-8-yl)amino)-6-((5-fluoropyridin-2-yl)amino)-N-methylnicotinamide]
[1]
  IC50: 30 to 300 nM
[3]
  IC50: > 1000 nM
[5]
  IC50: > 1000 nM
[6]
  IC50: > 1000 nM
[7]
  IC50: > 1000 nM
[8]
  IC50: 300 to 1000 nM

## [2H]C([2H])([2H])NC(=O)c1cnc(NC(=O)C2CC2)cc1Nc1cc(F)cc2c1N(C)Cc1nn(C)c(=O)n1-2 [Compound 16, 6-(cyclopropanecarboxamido)-4-((8-fluoro-2,5-dimethyl-1-oxo-1,2,4,5-tetrahydro-[1,2,4]triazolo[4,3-a]quinoxalin-6-yl)amino)-N-(methyl-d3)nicotinamide]
[1]
  IC50: < 30 nM
[2]
  IC50: > 1000 nM
[3]
  IC50: > 1000 nM
[4]
  IC50: > 1000 nM
[5]
  IC50: > 1000 nM
[6]
  IC50: > 1000 nM
[7]
  IC50: > 1000 nM
[8]
  IC50: < 30 nM

## [2H]C([2H])([2H])NC(=O)c1nnc(NC(=O)C2CC2)cc1Nc1cccc2c1N(C)Cc1nn(C)c(=O)n1-2 [Compound 17, 6-(cyclopropanecarboxamido)-4-((2,5-dimethyl-1-oxo-1,2,4,5-tetrahydro-[1,2,4]triazolo[4,3-a]quinoxalin-6-yl)amino)-N-(methyl-d3)pyridazine-3-carboxamide]
[1]
  IC50: < 30 nM
[2]
  IC50: > 1000 nM
[3]
  IC50: > 1000 nM
[4]
  IC50: 30 to 300 nM
[5]
  IC50: > 1000 nM
[6]
  IC50: > 1000 nM
[7]
  IC50: > 1000 nM
[8]
  IC50: < 30 nM

## [2H]C([2H])([2H])NC(=O)c1nnc(NC(=O)C2CC2)cc1Nc1cc(F)cc2c1N(C)Cc1nn(C)c(=O)n1-2 [Compound 18, 6-(cyclopropanecarboxamido)-4-((8-fluoro-2,5-dimethyl-1-oxo-1,2,4,5-tetrahydro-[1,2,4]triazolo[4,3-a]quinoxalin-6-yl)amino)-N-(methyl-d3)pyridazine-3-carboxamide]
[1]
  IC50: < 30 nM
[2]
  IC50: > 1000 nM
[3]
  IC50: > 1000 nM
[5]
  IC50: > 1000 nM
[6]
  IC50: > 1000 nM
[7]
  IC50: > 1000 nM
[8]
  IC50: 30 to 300 nM

## [2H]C([2H])([2H])NC(=O)c1nnc(NC(=O)C2CC2)cc1Nc1nccc2c1N(C)Cc1nn(C)c(=O)n1-2 [Compound 20, 6-(cyclopropanecarboxamido)-4-((2,5-dimethyl-1-oxo-1,2,4,5-tetrahydropyrido[3,4-e][1,2,4]triazolo[4,3-a]pyrazin-6-yl)amino)-N-(methyl-d3)pyridazine-3-carboxamide]
[1]
  IC50: < 30 nM
[2]
  IC50: > 1000 nM
[3]
  IC50: > 1000 nM
[5]
  IC50: > 1000 nM
[6]
  IC50: > 1000 nM
[7]
  IC50: > 1000 nM
[8]
  IC50: < 30 nM
